4 compounds from US20090047243A1, “COMBINATIONS FOR THE TREATMENT OF B-CELL PROLIFERATIVE DISORDERS” (priority 2007, published 2009) can be followed below.

The test system of experiment [1] is human multiple myeloma cells (MM.1S). The experiment is described as follows: Anti-proliferation assay (ATPLite, 72 h). Type of experiment: cell-based. Details: key to synergy score / synergy (score), PDEi × HE-NECA: S = lnfX·lnfY·ΣIdata(Idata−ILoewe), volume over Loewe additivity. Particulars: for inhibition at 1.17 µM: ADAC 1.17 μM; for inhibition at 3.51 µM: ADAC 3.51 μM; for inhibition at 10.5 µM: ADAC 10.5 μM; for inhibition at 31.6 µM: ADAC 31.6 μM; for synergy (score), PDEi × HE-NECA: 6×6 cross of PDE inhibitor or PDE inhibitor mixture with HE-NECA. The gist of the method: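 Cell viability was read by ATPLite luminescence after compound exposure. ANBL6 medium carried 10 ng/ml IL-6. Compounds were serially diluted 2- or 3-fold over 12 concentrations for single-agent curves, and percent inhibition was calculated relative to the mean of untreated wells.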

Experiment [2] deals with RPMI-8226, H929, MM.1S and MM.1R MM cell lines. Nature of the experiment: Anti-proliferation assay, statements across MM cell lines. Type of experiment: cell-based, human. Particulars: for activity and synergy of adenosine receptor agonists: RPMI-8226, H929, MM.1S and MM.1R MM cell lines; for rank of synergy scores among PDE inhibitors: crossed with adenosine receptor agonists. On the procedure:
The MM.1S, MM.1R, H929, MOLP-8, EJM, INA-6, ANBL6, KSM-12-PE, OPM2, and RPMI-8226 multiple myeloma cell lines, as well as the Burkitt's lymphoma cell line GA-10 and the non-Hodgkin's lymphoma cell lines Farage, SU-DHL6, and Karpas 422 were cultured at 37° C. and 5% CO2 in RPMI-1640 media supplemented with 10% FBS. ANBL6 and INA-6 culture media was also supplemented with 10 ng/ml IL-6. The OCI-ly10 cell line was cultured using RPMI-1640 media supplemented with 20% human serum. MM.1S, MM.1R, OCI-ly10, Karpas 422, and SU-DHL6 cells were provided by the Dana Farber Cancer Institute. H929, RPMI-8226, GA-10, and Farage cells were from ATCC (Cat #'s CCL-155, CRL-9068, CRL-2392 and CRL-2630 respectively). MOLP-8, EJM, KSM-12-PE, and OPM2 were from DSMZ. The ANBL6 and INA-6 cell lines were provided by the M. D. Anderson Cancer Research Center.
Compounds were prepared in DMSO at 1000× the highest desired concentration. Master plates were generated consisting of serially diluted compounds in 2- or 3-fold dilutions in 384-well format. For single agent dose response curves, the master plates consisted of 9 individual compounds at 12 concentrations in 2- or 3-fold dilutions. For combination matrices, master plates consisted of individual compounds at 6 or 9 concentrations at 2- or 3-fold dilutions.
Cells were added to 384-well plates 24 hours prior to compound addition such that each well contained 2000 cells in 35 μL of media. Master plates were diluted 100× (1 μL into 100 μL) into 384-well dilution plates containing only cell culture media. 4.5 μL from each dilution plate was added to each assay plate for a final dilution of 1000×. To obtain combination data, two master plates were diluted into the assay plates. Following compound addition, assay plates were kept at 37° C. and 5% CO2 for 72 hours. Thirty microliters of ATPLite (Perkin Elmer) at room temperature was then added to each well. Final amount of ATP was quantified within 30 minutes using ATPLite luminescent read-out on an Envision 2103 Multilabel Reader (Perkin Elmer). Measurements were taken at the top of the well using a luminescence aperture and a read time of 0.1 seconds per well.
The Loewe additivity model was used to quantify combination effects. Combinations were ranked initially by Additivity Excess Volume, which is defined as ADD Volume=ΣCX, CY (Idata−ILoewe). where ILoewe(CX, CY) is the inhibition that satisfies (CX/ECX)+(CY/ECY)=1, and ECX,Y are the effective concentrations at ILoewe for the single agent curves. A “Synergy Score” was also used, where the Synergy Score S=log fX log fY ΣIdata(Idata−ILoewe), summed over all non-single-agent concentration pairs, and where log fX,Y is the natural logarithm of the dilution factors used for each single agent. This effectively calculates a volume between the measured and Loewe additive response surfaces, weighted towards high inhibition and corrected for varying dilution factors. An uncertainty σS was calculated for each synergy score, based on the measured errors for the Idata values and standard error propagation.

The mark [3] stands for this setting: Homo sapiens, MM1.S, 10 ng/mL IL-6, Trequinsin conc. (μM), read-out: percent inhibition of ATP in MM.1S cells.
Where [4] appears, read: Homo sapiens, MM1.S, no IL-6, Trequinsin conc. (μM), read-out: percent inhibition of ATP in MM.1S cells.
Where [5] appears, read: PDE inhibitor crossed with (S) ENBA, MM.1S.
Setting [6] is: PDE inhibitor crossed with Chloro-IB-MECA, MM.1S.
Where [7] appears, read: PDE inhibitor crossed with HE-NECA, MM.1S.
Where [8] appears, read: in combination with adenosine receptor agonist CGS-21680, MM.1S.
Setting [9] is: in combination with adenosine receptor agonist HE-NECA, MM.1S.
Setting [10] is: in combination with adenosine receptor agonist regadenoson, MM.1S.

Structures can show the parent of a compound that is named as a salt. Where two headings read alike, the source gives them in different places.

As to `NCCNC(=O)Cc1ccc(NC(=O)Cc2ccc(Nc3ncnc4c3ncn4[C@@H]3O[C@H](CO)[C@@H](O)[C@H]3O)cc2)cc1` [ADAC, N-(4-(2-((4-(2-((2-aminoethyl)amino)-2-oxoethyl)phenyl)amino)-2-oxoethyl)phenyl)-Adenosine], in experiment [1] (setting [3]), the inhibition at 1.17 µM stood at 79%, the inhibition at 3.51 µM amounted to 81%, the inhibition at 10.5 µM worked out at 85% and the inhibition at 31.6 µM was 83%. For the same compound, the inhibition at […] in experiment [1] (Homo sapiens, MM1.S, 10 ng/mL IL-6, ADAC […], Trequinsin conc. (μM), read-out: percent inhibition of ATP in MM.1S cells) was 61%. The inhibition at 1.975 µM in experiment [1] (Homo sapiens, MM1.S, ADAC 1.975 μM, Trequinsin Hydrochloride conc. (μM), read-out: Percent inhibition of ATP in MM.1S cells) stood at 37%. Besides, the inhibition at 3.95 µM in experiment [1] (Homo sapiens, MM1.S, ADAC 3.95 μM, Trequinsin Hydrochloride conc. (μM), read-out: Percent inhibition of ATP in MM.1S cells) was 49%. In addition, in experiment [1] (Homo sapiens, MM1.S, ADAC 15.8 μM, Trequinsin Hydrochloride conc. (μM), read-out: Percent inhibition of ATP in MM.1S cells), the inhibition at 15.8 µM amounted to 66%. Further, the inhibition at 31.6 µM in experiment [1] (Homo sapiens, MM1.S, Trequinsin Hydrochloride conc. (μM), read-out: Percent inhibition of ATP in MM.1S cells) was determined as 60%. Moreover, in experiment [1] (setting [4]), the inhibition at 1.17 µM came out at 49%, the inhibition at 3.51 µM came out at 57%, the inhibition at 10.5 µM is 66% and the inhibition at 31.6 µM came out at 60%. Besides, the “activity and synergy of adenosine receptor agonists” value in experiment [2] is “active and synergistic”.

Regarding `COc1cc2c(cc1OC)-c1cc(=Nc3c(C)cc(C)cc3C)n(C)c(=O)n1CC2` [Trequinsin hydrochloride, 2,3,6,7-tetrahydro-9,10-dimethoxy-3-methyl-2-((2,4,6-trimethylphenyl)imino)-4H-pyrimido(6,1-a)isoquinolin-4-one], the “synergy (score), PDEi × HE-NECA” value in experiment [1] (MM.1S) amounted to 5.7. Besides, the inhibition at 0.377 µM was -1.2% in experiment [1] (Homo sapiens, MM1.S, 10 ng/mL IL-6, Trequinsin 0.377 μM, HE-NECA conc. (nM), read-out: percent inhibition of ATP in MM.1S cells) and 7.4% in experiment [1] (Homo sapiens, MM1.S, 72 h, trequinsin 0.377 μM alone (HE-NECA 0), 72 h, read-out: Percent inhibition of ATP in MM.1S cells). Moreover, the inhibition at 1.13 µM in experiment [1] (Homo sapiens, MM1.S, 10 ng/mL IL-6, Trequinsin 1.13 μM, HE-NECA conc. (nM), read-out: percent inhibition of ATP in MM.1S cells) came to 5.1%; in experiment [1] (Homo sapiens, MM1.S, 72 h, trequinsin 1.13 μM alone (HE-NECA 0), 72 h, read-out: Percent inhibition of ATP in MM.1S cells), 0.96%. In addition, the inhibition at 3.39 µM in experiment [1] (Homo sapiens, MM1.S, 10 ng/mL IL-6, Trequinsin 3.39 μM, HE-NECA conc. (nM), read-out: percent inhibition of ATP in MM.1S cells) came to 8.9%; in experiment [1] (Homo sapiens, MM1.S, 72 h, trequinsin 3.39 μM alone (HE-NECA 0), 72 h, read-out: Percent inhibition of ATP in MM.1S cells), 10%. In experiment [1] (Homo sapiens, MM1.S, 10 ng/mL IL-6, Trequinsin 10.2 μM, HE-NECA conc. (nM), read-out: percent inhibition of ATP in MM.1S cells), the inhibition at 10.2 µM was determined as 26%. Further, the inhibition at 30.5 µM was determined as 95% in experiment [1] (Homo sapiens, MM1.S, 10 ng/mL IL-6, Trequinsin 30.5 μM, HE-NECA conc. (nM), read-out: percent inhibition of ATP in MM.1S cells) and 68% in experiment [1] (Homo sapiens, MM1.S, 72 h, trequinsin 30.5 μM alone (HE-NECA 0), 72 h, read-out: Percent inhibition of ATP in MM.1S cells). For the same compound, the inhibition at 10.17 µM in experiment [1] (Homo sapiens, MM1.S, 72 h, trequinsin 10.17 μM alone (HE-NECA 0), 72 h, read-out: Percent inhibition of ATP in MM.1S cells) turned out to be 26%. Moreover, the synergy score in experiment [1] (setting [5]) is 4.56; in experiment [1] (PDE inhibitor crossed with ADAC, MM.1S) it was 6.62; in experiment [1] (setting [6]), 5.95; in experiment [1] (setting [7]), 7.85; in experiment [1] (in combination with adenosine receptor agonist ADAC, MM.1S) it was 6.619; in experiment [1] (setting [8]), 6.26. Besides, the results for the synergy score in experiment [1] (setting [9]) and in experiment [1] (setting [10]) were 7.235 and 1.85, respectively. Besides, in experiment [2], the “rank of synergy scores among PDE inhibitors” value is given as “highest synergy scores”.

On to `CCCCC#Cc1nc(N)c2ncn([C@@H]3O[C@H](C(=O)NCC)[C@@H](O)[C@H]3O)c2n1` [HE-NECA, hexynyladenosine-5′-N-ethylcarboxamide], for which the “percent inhibition of ATP in MM.1S cells” value amounted to 78% in experiment [1] (HE-NECA 0.0251 μM alone (trequinsin 0), 72 h); 79% in experiment [1] (HE-NECA 0.0752 μM alone (trequinsin 0), 72 h); 83% in experiment [1] (HE-NECA 0.226 μM alone (trequinsin 0), 72 h); 80% in experiment [1] (HE-NECA 0.677 μM alone (trequinsin 0), 72 h); 86% in experiment [1] (HE-NECA 2.03 μM alone (trequinsin 0), 72 h). Also, the “activity and synergy of adenosine receptor agonists” value in experiment [2] is “active and synergistic”.

For `COc1cc(-c2ccc(=O)[nH]n2)ccc1OC(F)F` [Zardaverine, 6-(4-(difluoromethoxy)-3-methoxyphenyl)-3(2H)-Pyridazinone], the “synergy (score), PDEi × HE-NECA” value in experiment [1] (MM.1S) is 4.39. Further, the inhibition at 1.89 µM in experiment [1] (Homo sapiens, MM1.S, Zardaverine 1.89 μM, Cl-IB-MECA conc. (μM), read-out: Percent inhibition of ATP in MM.1S cells) amounted to 0.11%. The inhibition at 3.79 µM in experiment [1] (Homo sapiens, MM1.S, Zardaverine 3.79 μM, Cl-IB-MECA conc. (μM), read-out: Percent inhibition of ATP in MM.1S cells) was -1.8%. The inhibition at 7.58 µM in experiment [1] (Homo sapiens, MM1.S, Zardaverine 7.58 μM, Cl-IB-MECA conc. (μM), read-out: Percent inhibition of ATP in MM.1S cells) was found to be 13%. In addition, the inhibition at 15.2 µM in experiment [1] (Homo sapiens, MM1.S, Zardaverine 15.2 μM, Cl-IB-MECA conc. (μM), read-out: Percent inhibition of ATP in MM.1S cells) was 5.1%. Further, the inhibition at 30.3 µM in experiment [1] (Homo sapiens, MM1.S, Zardaverine 30.3 μM, Cl-IB-MECA conc. (μM), read-out: Percent inhibition of ATP in MM.1S cells) turned out to be 14%. The synergy score in experiment [1] (setting [5]) was 2.59; in experiment [1] (setting [6]), 3.71; in experiment [1] (setting [7]), 4.39; in experiment [1] (setting [8]), 3.64; in experiment [1] (setting [9]), 4.39; in experiment [1] (setting [10]) it was 1.45. Further, in experiment [2], the “rank of synergy scores among PDE inhibitors” value is listed as “highest synergy scores”.

One may read the inhibition as the relative decrease from the control value, in per cent.
